From patent US12138236B2, “Compositions comprising N-Acetyl Methyl GABA and related methods” (MBI Distributing, priority 2020, dated 2024)
Several values for one entry are separate records, joined by “and”; a condition that tells them apart may be missing. Equal values may be shown once.

Legend:
[1] = Daytime study of N-Acetyl Methyl GABA composition without melatonin, 19 subjects (Example 6); format: in vivo, human; details: one value per patient (1-19), over baseline, 2 teaspoons (8 g) orally once daily, 14 days
Procedure: The Purpose of this study was to quantify the effectiveness of N-Acetyl Methyl GABA on FAM MS (Fatigue, Anxiety, Mood, Mind, Stress) and related symptoms and qualities. (Mind refers to mental clarity, memory and focus).
Due to the above-described effects of N-Acetyl Methyl GABA on sleep and relaxation, a sleep quality section was added to see how a “daytime” version of N-Acetyl Methyl GABA (administered without melatonin) assisted with sleep quality for daytime patients. This was also beneficial for patients that prefer not to take melatonin.
Study participants: 19 subjects
7 day pre-study symptomology (no N-Acetyl Methyl GABA taken) to record a baseline of patient symptoms.
14 day study symptomology (taking N-Acetyl Methyl GABA) to record patient symptoms.
Preferred subject would have minimum two of the following symptoms prior to study: FAMMS (Fatigue, Anxiety, Mood, Mind, Stress) (Mind defines mental clarity, memory and focus issues), sleep imbalance, insomnia, daytime energy issues.
Subjects were asked to not use any additional mind/body stress relief or natural supplements other than the N-Acetyl Methyl GABA composition (“GabaSorb® Daytime”) during the 14 day study.
Subjects were asked to take 2 teaspoons of the liquid N-Acetyl Methyl GABA composition (Gabasorb Daytime) daily in the morning or early afternoon if they suffered from two or more symptoms listed in the protocol.
The N-Acetyl Methyl GABA composition described in Table 11 was taken orally by each patient once daily.
Subjects were administered 2 teaspoons (8 g) of the liquid N-Acetyl Methyl GABA composition described above.
Ratings were made each day during the study period (7 days pre-administration, 14-days during N-Acetyl Methyl GABA administration), based on a scale of 1 to 5. Improvements are shown by increased ratings over baseline in qualities such as Stress, Anxiety, Mental Clarity and Memory, Mood, Daytime Energy, and Sleep Quality for each patient in Table 12. Patient gender and age for Table 12 are as follows: Patient 1 (P1)[…], P2[…], P3[…]; P4[…], P5[…], P6[…], P7[…], P8[…], P9[…], P10[…], P11[…], P12[…], P13[…], P14:M/22, P15:F/23, P16:M/50, P17:M/19, P18:F/44, P19:F27.

[2] = Single human subject's report on overnight sleep after self-administering N-Acetyl Methyl GABA (Example 2); format: in vivo; design: key to Sleep Quality / Restfulness/Wakefulness / Mental Clarity/Memory / Mood / Anti-inflammatory Action (decrease in pain): 1: Very Poor; 2: Poor; 3: Fair; 4: Good; 5: Excellent
Procedure: Table 2 reports a human subject's sleep quality, restfulness/wakefulness, mental clarity/memory, mood, and inflammation and pain reduction after 18 overnight sleep periods over the span of 15 weeks (October-January, as shown in Table 2), with 15 of the 18 nights occurring before the first administration of N-Acetyl Methyl GABA to the subject. Table 3 reports the subject's sleep quality and other parameters after self-administering 300 mg of N-Acetyl Methyl GABA before an overnight sleep period, 40 times over the span of 9 weeks (November-January, as shown in Table 3). Data in Tables 2 and 3 are based on a rating of sleep quality and other parameters from 1 to 5, where 1 is Very Poor, 2 is Poor, 3 is Fair, 4 is Good, and 5 is Excellent. Each morning after waking, the subject reported on the sleep quality, restfulness/wakefulness, mental clarity/memory, mood, and inflammation and pain reduction they felt, and/or with regard to sleep quality, used information from a “Sleep Cycle” app on a cell phone (Sleep Cycle, www.sleepcycle.com, Gothenburg, Sweden).
For 14 of the days reported in Table 2, before the first administration of N-Acetyl Methyl GABA, data is from a sleep app on a cell phone device. Other data in Table 2 is from the subject's experience as reported for a given sleep period. The data before first administration of N-Acetyl Methyl GABA provides a baseline of sleep patterns for the subject with no sleep aid. The average sleep quality in the subject before a first administration of N-Acetyl Methyl GABA was 73.8%. The average percentage of sleep quality improved after administration of N-Acetyl Methyl GABA according to this invention, with average sleep quality at 80.4%.

[3] = Administration of N-Acetyl Methyl GABA to other human subjects, subject reports; format: in vivo
Procedure: Subjects report more natural sleep without the morning grogginess associated with many sleep aids. Subjects report they slept all night long without waking. […] Subjects report the mind is clear and the attitude is positive after N-Acetyl Methyl GABA was administered prior to an overnight sleep period. Without being bound by theory, this may be due to anxiolytic effects of N-Acetyl Methyl GABA.

[4] = average of 40 nights, scale 1 to 5, without: 2.2
[5] = daily rating 1 to 5 after overnight sleep, 300 mg before sleep, one subject
[6] = sum of 40 daily ratings, 300 mg

COC(=O)CCCNC(C)=O [N-Acetyl Methyl GABA]
Anxiety Reduced (%) [1]: 35% and 32% and 22% and 40% (2×) and 46% and 107% and 71% (2×) and 126% and 57% and 56% (2×) and 63% (3×) and 52% and 95% and 89%
Daytime Energy Improved (%) [1]: 40% and 32% and 88% (2×) and 29% and 57% and 74% and 36% and 42% and 23% and 17% and 22% (2×) and 43% and 20% and 11% and 0% and 33% (2×)
Mental Clarity/Memory Improved (%) [1]: 57% and 55% and 72% and 43% and 100% and 82% and 52% and 56% and 131% and 70% and 59% and 23% and 25% and 33% (2×) and 71% and 16% and 30% and 40%
Mood Improved (%) [1]: 20% and 94% and 39% and 68% and 100% (4×) and 120% and 152% and 88% and 129% and 107% and 85% and 65% and 60% and 69% (2×) and 112%
Sleep Quality Improved (%) [1]: 78% (2×) and 95% and 118% and 150% and 233% and 62% (2×) and 77% and 93% and 57% and 81% and 52% (3×) and 75% and 87% and 79% and 56%
Stress Reduced (%) [1]: 48% and 45% and 36% (2×) and 33% and 72% and 17% and 25% and 40% (3×) and 78% and 69% and 27% and 56% and 85% and 41% and 52% and 55%
side effects reported by the subject ([2]; 300 mg before overnight sleep, 40 times over 9 weeks): No side effects
Inflammation/pain improved, percent of average score without ([2]; 2.1/1.7*100%): about 125%
Mental clarity/memory improved, percent of average score without ([2]; 2.2/2.2*100%): 100%
Mood improved, percent of average score without ([2]; 2.5/1.9*100%): about 132%
Sleep quality improved, percent of average score without ([2]; 2.5/2.2*100%): approximately 115%
Restfulness/wakefulness improved, percent of average score without ([2]; 2.6/2*100%): 130%
average sleep quality (percentage) ([2]; after administration, before first administration 73.8%, sleep app on cell phone): 80.4%
morning or mid-afternoon anxiety, subject report ([2]; after waking from the sleep periods): no longer feeling morning or mid-afternoon anxiety
Anti-inflammatory Action (decrease in pain), average score with N-Acetyl Methyl GABA ([2]; average of 40 nights, scale 1 to 5, without: 1.7): 3.8
Mood, average score with N-Acetyl Methyl GABA ([2]; average of 40 nights, scale 1 to 5, without: 1.9): 4.4
Restfulness/Wakefulness, average score with N-Acetyl Methyl GABA ([2]; average of 40 nights, scale 1 to 5, without: 2): 4.6
Mental Clarity/Memory, average score with N-Acetyl Methyl GABA [2, 4]: 4.4
Sleep Quality, average score with N-Acetyl Methyl GABA [2, 4]: 4.7
Anti-inflammatory Action (decrease in pain) [2, 5]: 3 and 4 and 2 and 5
Mental Clarity/Memory [2, 5]: 3 and 4 and 5
Mood [2, 5]: 3 and 4 and 5
Restfulness/Wakefulness [2, 5]: 3 and 4 and 5
Sleep Quality ([2]; daily rating 1 to 5 after overnight sleep, 300 mg self-administered before sleep, one subject): 4 and 5
Anti-inflammatory Action (decrease in pain), Total Score, 40 days [2, 6]: 153
Mental Clarity/Memory, Total Score, 40 days [2, 6]: 177
Mood, Total Score, 40 days [2, 6]: 176
Restfulness/Wakefulness, Total Score, 40 days [2, 6]: 183
Sleep Quality, Total Score, 40 days [2, 6]: 190
sleep quality, subjects' report ([3]; administered prior to a sleep period): improved sleep quality
tolerability in other human subjects ([3]; human, in vivo): well tolerated
